Source: ChEMBL document CHEMBL3091354, “Tyrosinase and Layer-by-Layer supported tyrosinases in the synthesis of lipophilic catechols with antiinfluenza activity” (Bioorg Med Chem, 2013)
≈ marks a conversion by molar mass, not a printed value. Calls of active or inactive are those of the source. The calls are words filed in the database; no cut-off is given here.

What was measured:
Influenza A virus [1] = assay: Antiviral activity against Influenza A/PR8/H1N1 virus infected in MDCK cells assessed as inhibition of virus yield at 10 to 20 ug/ml after 48 hrs; type: functional, organism-based
Influenza A virus [2] = assay: Antiviral activity against Influenza A/PR8/H1N1 virus infected in MDCK cells assessed as inhibition of virus yield after 48 hrs; type: functional
[3] = test system: Radical scavenging activity; assay: Antioxidant activity assessed as DPPH radical scavenging activity; type: functional
MDCK [4] = assay: Cytotoxicity against MDCK cells assessed as effect on cell viability at 50 to 100 ug/ml; type: cell-based, Canis lupus familiaris; details: dog
MDCK [5] = assay: Cytotoxicity against MDCK cells assessed as effect on cell viability at 20 ug/ml; type: cell-based, Canis lupus familiaris; details: dog
MDCK [6] = assay: Cytotoxicity against MDCK cells assessed as effect on cell morphology at 20 ug/ml; type: cell-based, Canis lupus familiaris; details: dog
Influenza A virus [7] = assay: Antiviral activity against Influenza A/PR8/H1N1 virus infected in MDCK cells assessed as inhibition of virus yield after 24 hrs; type: functional, organism-based
MDCK [8] = assay: Cytotoxicity against MDCK cells assessed as effect on cell morphology at 50 to 100 ug/ml; type: cell-based, Canis lupus familiaris; details: dog

CCCCC(=O)OCCc1ccc(O)cc1
Activity (Influenza A virus [1]): inactive

CCOC(=O)CCc1ccc(O)c(O)c1
inhibition (Influenza A virus [2]): inactive | EC50 [3]: 136.7 µg/mL (≈ 650 µM)

CCCCC(=O)OCCc1ccc(O)c(O)c1
Activity (MDCK [4]): Toxic | Activity (MDCK [5]): Non-toxic | Activity (MDCK [6]): Non-toxic | EC50 [3]: 0.59 µg/mL (≈ 2.48 µM) | IC50 (Influenza A virus [7]): 34 µM | inhibition (Influenza A virus [7]): Dose-dependent effect | Activity (MDCK [8]): Toxic

O=C(O)CCc1ccc(O)c(O)c1 [DIHYDROCAFFEIC ACID]
inhibition (Influenza A virus [2]): inactive | EC50 [3]: 61.29 µg/mL (≈ 336 µM)

COC(=O)CCc1ccc(O)c(O)c1
inhibition (Influenza A virus [2]): inactive | EC50 [3]: 161.9 µg/mL (≈ 825 µM)

CCCCOC(=O)CCc1ccc(O)c(O)c1
inhibition (Influenza A virus [2]): inactive | EC50 [3]: 58.9 µg/mL (≈ 247 µM)

CC(=O)OCCc1ccc(O)c(O)c1
inhibition (Influenza A virus [2]): inactive | EC50 [3]: 0.57 µg/mL (≈ 2.91 µM)

CCCC(=O)OCCc1ccc(O)cc1
Activity (Influenza A virus [1]): inactive

COC(=O)CCc1ccc(O)cc1
Activity [3]: inactive

O=C(O)CCc1ccc(O)cc1
Activity [3]: inactive

CCC(=O)OCCc1ccc(O)c(O)c1
inhibition (INH) (Influenza A virus [2]): 75% | EC50 [3]: 0.56 µg/mL (≈ 2.66 µM)

CCCOC(=O)CCc1ccc(O)c(O)c1
inhibition (Influenza A virus [2]): inactive | EC50 [3]: 89.65 µg/mL (≈ 400 µM)

NC(=O)c1ncn([C@@H]2O[C@H](CO)[C@@H](O)[C@H]2O)n1 [RIBAVIRIN]
IC50 (Influenza A virus [7]): 14 µM

CCCC(=O)OCCc1ccc(O)c(O)c1 [HYDROXYTYROSOL BUTANOATE]
Activity (MDCK [4]): Toxic | Activity (MDCK [5]): Non-toxic | Activity (MDCK [6]): Non-toxic | EC50 [3]: 0.58 µg/mL (≈ 2.59 µM) | IC50 (Influenza A virus [7]): 29.8 µM | inhibition (Influenza A virus [7]): Dose-dependent effect | Activity (MDCK [8]): Toxic
